The supplement of paper PMC12137928
Where a name gives a salt, the structure may show the parent alone.

System: HCT116
Details: 72 h
Procedure, shortened: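 HCT116 cells were seeded at 250 per well in 1536-well plates and left 5 h to attach. CellTiter-Glo luminescence was scaled to vehicle (0%) and positive control (-100%), then pattern-corrected. IC50 and maximal efficacy came from four-parameter Hill fits.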

| IC50 cell viability (ICRF193 0 nM) | IC50 cell viability (ICRF193 200 nM) | Compound |
| --- | --- | --- |
| > 45.8 µM | > 45.8 µM | O=C(OOC(=O)c1ccccc1)c1ccccc1 [Benzoyl peroxide] |
| > 45.8 µM | > 45.8 µM | CCN(CC)C(=O)C1CN2CCc3cc(OC)c(OC)cc3C2CC1OC(C)=O (stereo not drawn) [Benzquinamide] |
| > 45.8 µM | > 45.8 µM | CN1[C@@H]2CC[C@H]1C[C@@H](OC(c1ccccc1)c1ccccc1)C2 [Benztropine mesylate] |
| > 45.8 µM | > 45.8 µM | CN(C)CCCOc1nn(Cc2ccccc2)c2ccccc12 [Benzydamine hydrochloride] |
| > 45.8 µM | > 45.8 µM | OCc1ccccc1 [Benzyl alcohol] |
| > 45.8 µM | > 45.8 µM | O=C(OCc1ccccc1)c1ccccc1 [Benzyl benzoate] |
| > 45.8 µM | > 45.8 µM | O=C(/C=C/c1ccccc1)OCc1ccccc1 [Benzyl cinnamate] |
| > 45.8 µM | > 45.8 µM | NS(=O)(=O)c1cc2c(cc1Cl)NC(Cc1ccccc1)NS2(=O)=O (stereo not drawn) [Benzylhydrochlorothiazide] |
| > 45.8 µM | > 45.8 µM | O=C(OCc1ccccc1)c1ccc(O)cc1 [Benzylparaben] |
| > 45.8 µM | > 45.8 µM | O=C(O)CCCN1CCC(O[C@@H](c2ccc(Cl)cc2)c2ccccn2)CC1 [Bepotastine (Beslilate)] |
| > 45.8 µM | > 45.8 µM | COc1c(O)cc2c(c1O)[C@@H]1O[C@H](CO)[C@@H](O)[C@H](O)[C@H]1OC2=O [Bergenin monohydrate] |
| > 45.8 µM | > 45.8 µM | N[C@@H]1CCCCN(c2c(F)cc3c(=O)c(C(=O)O)cn(C4CC4)c3c2Cl)C1 [Besifloxacin Hydrochloride] |
| > 45.8 µM | > 45.8 µM | CNCCc1ccccn1 [Betahistine mesylate] |
| > 45.8 µM | > 45.8 µM | C[N+](C)(C)CC(=O)O [Betaine] |
| > 45.8 µM | > 45.8 µM | CCCC(=O)O[C@]1(C(=O)COC(=O)CC)[C@@H](C)C[C@H]2[C@@H]3CCC4=CC(=O)C=C[C@]4(C)[C@@]3(F)[C@@H](O)C[C@@]21C [Betamethasone butyrate propionate] |
| > 45.8 µM | > 45.8 µM | CCCCC(=O)O[C@]1(C(=O)CO)[C@@H](C)C[C@H]2[C@@H]3CCC4=CC(=O)C=C[C@]4(C)[C@@]3(F)[C@@H](O)C[C@@]21C [Betamethasone valerate] |
| > 45.8 µM | > 45.8 µM | O=C(O)CCNC(=O)c1ccccc1 [Betamipron] |
| > 45.8 µM | > 45.8 µM | CC(C[N+](C)(C)C)OC(N)=O (stereo not drawn) [Bethanechol chloride] |
| > 45.8 µM | > 45.8 µM | C/N=C(\NC)NCc1ccccc1 [Bethanidine sulfate (2:1)] |
| > 45.8 µM | > 45.8 µM | O=C(O)CNC(=O)CNC(=O)CNC(=O)CSC(=O)c1ccccc1 [Betiatide] |
| > 45.8 µM | > 45.8 µM | COc1ccc(NC(=O)c2ccc(C(=N)N(C)C)cc2)c(C(=O)Nc2ccc(Cl)cn2)c1 [Betrixaban] |
| > 45.8 µM | > 45.8 µM | COc1ccc(CCNCC(O)COc2cccc(C)c2)cc1OC (stereo not drawn) [Bevantolol hydrochloride] |
| > 45.8 µM | > 45.8 µM | C=C(c1ccc(C(=O)O)cc1)c1cc2c(cc1C)C(C)(C)CCC2(C)C [Bexarotene] |
| > 45.8 µM | > 45.8 µM | CC(C)(Oc1ccc(CCNC(=O)c2ccc(Cl)cc2)cc1)C(=O)O [Bezafibrate] |

Continued, compound first:

| Compound | IC50 cell viability (ICRF193 0 nM) | IC50 cell viability (ICRF193 200 nM) |
| --- | --- | --- |
| C[C@H]1[C@H](NC(=O)/C(=N\OC(C)(C)C(=O)O)c2csc(N)n2)C(=O)N1S(=O)(=O)O [Aztreonam] | > 45.8 µM | > 45.8 µM |
| CCCCC(CC)COc1ccc(-c2nc(-c3ccc(OC)cc3)nc(-c3ccc(OCC(CC)CCCC)cc3O)n2)c(O)c1 (stereo not drawn) [BEMOTRIZINOL] | > 45.8 µM | > 45.8 µM |
| O=C(OCc1ccccc1)c1cccnc1 [BENZYL NICOTINATE] | > 45.8 µM | > 45.8 µM |
| O=C(OCCO)c1ccccc1O [BETA-HYDROXYETHYL SALICYLATE] | > 45.8 µM | > 45.8 µM |
| CCC(=O)OCC(=O)[C@@]1(OC(=O)CC)[C@@H](C)C[C@H]2[C@@H]3CCC4=CC(=O)C=C[C@]4(C)[C@@]3(F)[C@@H](O)C[C@@]21C [BETAMETHASONE 17,21-DIPROPIONATE] | > 45.8 µM | > 45.8 µM |
| CCCCCCOC(=O)NC(=N)c1ccc(NCc2nc3cc(C(=O)N(CCC(=O)OCC)c4ccccn4)ccc3n2C)cc1 [BIBR-1048] | > 45.8 µM | > 45.8 µM |
| CC(O)(CS(=O)(=O)c1ccc(F)cc1)C(=O)Nc1ccc(C#N)c(C(F)(F)F)c1 (stereo not drawn) [BICALUTAMIDE] | > 45.8 µM | > 45.8 µM |
| CC1(C)C2CCC1(C)C(O)C2 (stereo not drawn) [BORNEOL] | > 45.8 µM | > 45.8 µM |
| CC(=O)OC1CC2CCC1(C)C2(C)C (stereo not drawn) [BORNYL ACETATE] | > 45.8 µM | > 45.8 µM |
| CC(C)(C)NCC(O)COc1ccccc1C#N (stereo not drawn) [BUNITROLOL] | > 45.8 µM | > 45.8 µM |
| CCOC(=O)OC(C)OC(=O)[C@@H]1N2C(=O)[C@@H](NC(=O)[C@H](N)c3ccccc3)[C@H]2SC1(C)C (stereo partly drawn) [Bacampicillin hydrochloride] | > 45.8 µM | > 45.8 µM |
| CC[C@H](C)[C@H](N)C1=N[C@H](C(=O)N[C@@H](CC(C)C)C(=O)N[C@H](CCC(=O)O)C(=O)N[C@H](C(=O)N[C@H]2CCCCNC(=O)[C@H](CC(N)=O)NC(=O)[C@@H](CC(=O)O)NC(=O)[C@H](Cc3cnc[nH]3)NC(=O)[C@@H](Cc3ccccc3)NC(=O)[C@H]([C@@H](C)CC)NC(=O)[C@@H](CCCN)NC2=O)[C@@H](C)CC)CS1 [Bacitracin] | > 45.8 µM | > 45.8 µM |
| NCC(CC(=O)O)c1ccc(Cl)cc1 (stereo not drawn) [Baclofen] | > 45.8 µM | > 45.8 µM |
| CNC1CCCN(c2c(F)cc3c(=O)c(C(=O)O)cn(C4CC4)c3c2OC)C1 (stereo not drawn) [Balofloxacin] | > 45.8 µM | > 45.8 µM |
| O=C(O)CCNC(=O)c1ccc(/N=N/c2ccc(O)c(C(=O)O)c2)cc1 [Balsalazide disodium] | > 45.8 µM | > 45.8 µM |
| CN(C)C(=O)Oc1cc(OC(=O)N(C)C)cc(C(O)CNC(C)(C)C)c1 (stereo not drawn) [Bambuterol hydrochloride] | > 45.8 µM | > 45.8 µM |
| CCCCNCC(O)c1ccc(O)cc1 (stereo not drawn) [Bamethan] | > 45.8 µM | > 45.8 µM |
| COc1nc2ccc(Br)cc2cc1[C@@H](c1ccccc1)[C@@](O)(CCN(C)C)c1cccc2ccccc12 [Bedaquiline (TMC-207)] | > 45.8 µM | > 45.8 µM |
| CC(=O)c1cc2cccc(OCC(O)CNC(C)C)c2o1 (stereo not drawn) [Befunolol] | > 45.8 µM | > 45.8 µM |
| CCC1(C)CC(=O)NC(=O)C1 [Bemegride] | > 45.8 µM | > 45.8 µM |

| Compound | IC50 cell viability (ICRF193 0 nM) | IC50 cell viability (ICRF193 200 nM) |
| --- | --- | --- |
| CCOC(=O)[C@H](CCc1ccccc1)N[C@H]1CCc2ccccc2N(CC(=O)O)C1=O [Benazepril] | > 45.8 µM | > 45.8 µM |
| CN(C)CCCOC1(Cc2ccccc2)CCCCCC1 [Bencyclane] | > 45.8 µM | > 45.8 µM |
| Cn1c(CCCC(=O)O)nc2cc(N(CCCl)CCCl)ccc21 [Bendamustine] | > 45.8 µM | > 45.8 µM |
| O=C(O)COc1nn(Cc2ccccc2)c2ccccc12 [Bendazac sodium] | > 45.8 µM | > 45.8 µM |
| C/C(=C(\CCOP(=O)(O)O)SC(=O)c1ccccc1)N(C=O)Cc1cnc(C)nc1N [Benfotiamine] | > 45.8 µM | > 45.8 µM |
| CC(=O)Nc1ccc(OC(=O)c2ccccc2OC(C)=O)cc1 [Benorylate] | > 45.8 µM | > 45.8 µM |
| CCCCOc1cc(C(=O)OCCN(CC)CC)ccc1N [Benoxinate hydrochloride] | > 45.8 µM | > 45.8 µM |
| O=C(CCCN1CCC(n2c(=O)[nH]c3ccccc32)CC1)c1ccc(F)cc1 [Benperidol] | > 45.8 µM | > 45.8 µM |
| NC(CO)C(=O)NNCc1ccc(O)c(O)c1O (stereo not drawn) [Benserazide] | > 45.8 µM | > 45.8 µM |
| O=C(O)c1ccc(NC(=O)[C@H](Cc2ccc(O)cc2)NC(=O)c2ccccc2)cc1 [Bentiromide sodium] | > 45.8 µM | > 45.8 µM |
| CC[N+](C)(CC)CCOC(=O)C(O)(c1ccccc1)c1ccccc1 [Benzactyzine methobromide] | > 45.8 µM | > 45.8 µM |
| CCc1oc2ccccc2c1C(=O)c1cc(Br)c(O)c(Br)c1 [Benzbromarone] | > 45.8 µM | > 45.8 µM |
| O=S(=O)(O)c1ccccc1 [Benzene sulfonic acid] | > 45.8 µM | > 45.8 µM |
| O=C(Cn1ccnc1[N+](=O)[O-])NCc1ccccc1 [Benznidazole] | > 45.8 µM | > 45.8 µM |
| CCOC(=O)c1ccc(N)cc1 [Benzocaine] | > 45.8 µM | > 45.8 µM |
| O=C(c1ccccc1)C(O)c1ccccc1 (stereo not drawn) [Benzoin] | > 45.8 µM | > 45.8 µM |
| CCCCNc1ccc(C(=O)OCCOCCOCCOCCOCCOCCOCCOCCOCCOC)cc1 [Benzonatate] | > 45.8 µM | > 45.8 µM |
| c1ccc2scnc2c1 [Benzothiazole] | > 45.8 µM | > 45.8 µM |
| CN1[C@H]2CC[C@@H]1[C@@H](C(=O)O)[C@@H](OC(=O)c1ccccc1)C2 [Benzoylecgonine] | > 45.8 µM | > 45.8 µM |
| C[N+]1(C)CCCCC1COC(=O)C(O)(c1ccccc1)c1ccccc1 (stereo not drawn) [Bevonium metilsulfate] | > 45.8 µM | > 45.8 µM |
